Test results taken from ChEMBL document CHEMBL4819073, “Synthesis and biological evaluation of phenothiazine derivative-containing hydroxamic acids as potent class II histone deacetylase inhibitors” (Eur J Med Chem, 2021).
pIC50: −log10 of the molar value. Activity calls are given as the source filed them. No cut-off for these calls is given here.

Experiments:
[1] = biological target: T1, Protein deacetylase HDAC6 (Mus musculus) (UniProt Q9Z2V5); assay: Inhibition of HDAC6 in mouse Neuro2a cells assessed as increase in acetylated alpha-tubulin levels incubated for 24 hrs by Western blot analysis; assay type: cell-based; conditions: dose 0.039-20 µM
T1 sequence (whole entry): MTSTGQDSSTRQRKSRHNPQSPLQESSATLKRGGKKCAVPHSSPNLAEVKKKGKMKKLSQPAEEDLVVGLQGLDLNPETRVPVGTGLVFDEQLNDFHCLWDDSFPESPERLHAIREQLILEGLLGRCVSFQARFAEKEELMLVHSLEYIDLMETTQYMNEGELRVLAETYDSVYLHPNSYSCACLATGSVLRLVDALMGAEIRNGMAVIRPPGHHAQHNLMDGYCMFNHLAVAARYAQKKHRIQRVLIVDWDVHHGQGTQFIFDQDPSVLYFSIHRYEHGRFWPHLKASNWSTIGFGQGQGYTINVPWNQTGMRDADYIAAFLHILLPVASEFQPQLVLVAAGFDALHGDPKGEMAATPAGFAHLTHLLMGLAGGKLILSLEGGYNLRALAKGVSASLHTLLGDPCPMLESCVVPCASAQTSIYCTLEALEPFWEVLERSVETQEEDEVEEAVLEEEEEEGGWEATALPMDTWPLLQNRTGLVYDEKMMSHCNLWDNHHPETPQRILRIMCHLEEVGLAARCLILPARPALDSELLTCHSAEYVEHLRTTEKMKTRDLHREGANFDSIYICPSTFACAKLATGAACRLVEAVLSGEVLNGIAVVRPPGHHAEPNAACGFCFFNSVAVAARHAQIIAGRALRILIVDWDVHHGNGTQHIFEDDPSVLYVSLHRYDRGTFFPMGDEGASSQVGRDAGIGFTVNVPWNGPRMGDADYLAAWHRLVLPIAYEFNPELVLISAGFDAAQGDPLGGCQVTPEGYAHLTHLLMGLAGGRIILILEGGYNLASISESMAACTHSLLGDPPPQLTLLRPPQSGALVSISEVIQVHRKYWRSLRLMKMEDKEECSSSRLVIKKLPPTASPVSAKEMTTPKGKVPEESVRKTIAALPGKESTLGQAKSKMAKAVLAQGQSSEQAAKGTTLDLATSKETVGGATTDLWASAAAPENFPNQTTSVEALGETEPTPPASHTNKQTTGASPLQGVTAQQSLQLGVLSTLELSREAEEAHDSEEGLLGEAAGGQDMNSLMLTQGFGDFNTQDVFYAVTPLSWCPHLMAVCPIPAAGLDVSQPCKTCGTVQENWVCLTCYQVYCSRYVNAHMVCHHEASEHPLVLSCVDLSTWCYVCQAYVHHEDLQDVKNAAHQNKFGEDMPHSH

[2] = test system: N2a; assay: Cytotoxicity against mouse Neuro2a cells assessed as reduction in cell viability at 20 uM incubated for 24 hrs by Cell Titer-Glo 2.0 Luminescent cell assay; assay type: cell-based
[3] = biological target: Histone deacetylase; assay: Inhibition of HDAC in human HeLa nuclear extracts using Boc-Lys (acetyl)-AMC as substrate preincubated for 5 mins followed by substrate addition and further incubated for 30 mins by fluorescence based assay; assay type: subcellular, Nucleus
[4] = biological target: Histone deacetylase 4 (Homo sapiens, UniProt P56524); assay: Inhibition of N-terminal GST-tagged and C-terminal His-tagged human HDAC4 (627 to 1084 residues) expressed in baculovirus infected Sf9 cells using Boc Lys(TFA)-AMC as substrate preincubated for 5 mins followed by substrate addition and further incubated for 30 mins by fluorogenic assay
Histone deacetylase 4, sequence (P56524 whole entry, the tested form may be a part): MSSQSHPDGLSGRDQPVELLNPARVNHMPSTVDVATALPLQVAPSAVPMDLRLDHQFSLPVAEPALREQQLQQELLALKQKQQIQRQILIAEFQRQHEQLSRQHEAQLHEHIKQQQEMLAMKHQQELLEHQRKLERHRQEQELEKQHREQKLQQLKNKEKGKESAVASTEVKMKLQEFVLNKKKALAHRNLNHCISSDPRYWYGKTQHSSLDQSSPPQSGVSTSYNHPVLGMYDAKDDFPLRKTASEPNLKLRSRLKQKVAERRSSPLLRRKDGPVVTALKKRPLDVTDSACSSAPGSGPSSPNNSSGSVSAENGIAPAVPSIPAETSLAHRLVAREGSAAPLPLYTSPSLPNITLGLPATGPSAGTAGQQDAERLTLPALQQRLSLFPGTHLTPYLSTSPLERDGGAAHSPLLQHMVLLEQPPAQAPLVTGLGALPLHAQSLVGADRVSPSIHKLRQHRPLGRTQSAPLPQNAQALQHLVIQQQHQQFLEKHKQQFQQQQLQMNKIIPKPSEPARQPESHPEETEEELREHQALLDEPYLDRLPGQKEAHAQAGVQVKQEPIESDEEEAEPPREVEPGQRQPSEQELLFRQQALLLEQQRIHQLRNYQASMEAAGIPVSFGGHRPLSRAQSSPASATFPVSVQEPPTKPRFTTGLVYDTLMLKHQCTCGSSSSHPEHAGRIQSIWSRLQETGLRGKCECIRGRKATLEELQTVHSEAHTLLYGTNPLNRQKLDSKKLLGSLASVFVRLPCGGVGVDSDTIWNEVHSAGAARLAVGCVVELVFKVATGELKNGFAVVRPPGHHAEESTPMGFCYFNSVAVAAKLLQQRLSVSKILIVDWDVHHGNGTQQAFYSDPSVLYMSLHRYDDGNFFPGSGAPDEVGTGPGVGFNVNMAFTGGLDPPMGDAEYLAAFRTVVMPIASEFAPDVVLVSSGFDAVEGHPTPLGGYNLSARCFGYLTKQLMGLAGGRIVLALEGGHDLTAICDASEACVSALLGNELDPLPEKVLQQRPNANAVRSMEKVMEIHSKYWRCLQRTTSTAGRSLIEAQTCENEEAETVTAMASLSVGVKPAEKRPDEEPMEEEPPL

[5] = biological target: T2, Protein deacetylase HDAC6 (Homo sapiens, UniProt Q9UBN7); assay: Inhibition of N-terminal GST-tagged full length human HDAC6 expressed in baculovirus-infected Sf9 cells using Boc-Lys (acetyl)-AMC as substrate preincubated for 5 mins followed by substrate addition and further incubated for 30 mins by fluorescence based assay
T2 sequence (Q9UBN7 whole entry): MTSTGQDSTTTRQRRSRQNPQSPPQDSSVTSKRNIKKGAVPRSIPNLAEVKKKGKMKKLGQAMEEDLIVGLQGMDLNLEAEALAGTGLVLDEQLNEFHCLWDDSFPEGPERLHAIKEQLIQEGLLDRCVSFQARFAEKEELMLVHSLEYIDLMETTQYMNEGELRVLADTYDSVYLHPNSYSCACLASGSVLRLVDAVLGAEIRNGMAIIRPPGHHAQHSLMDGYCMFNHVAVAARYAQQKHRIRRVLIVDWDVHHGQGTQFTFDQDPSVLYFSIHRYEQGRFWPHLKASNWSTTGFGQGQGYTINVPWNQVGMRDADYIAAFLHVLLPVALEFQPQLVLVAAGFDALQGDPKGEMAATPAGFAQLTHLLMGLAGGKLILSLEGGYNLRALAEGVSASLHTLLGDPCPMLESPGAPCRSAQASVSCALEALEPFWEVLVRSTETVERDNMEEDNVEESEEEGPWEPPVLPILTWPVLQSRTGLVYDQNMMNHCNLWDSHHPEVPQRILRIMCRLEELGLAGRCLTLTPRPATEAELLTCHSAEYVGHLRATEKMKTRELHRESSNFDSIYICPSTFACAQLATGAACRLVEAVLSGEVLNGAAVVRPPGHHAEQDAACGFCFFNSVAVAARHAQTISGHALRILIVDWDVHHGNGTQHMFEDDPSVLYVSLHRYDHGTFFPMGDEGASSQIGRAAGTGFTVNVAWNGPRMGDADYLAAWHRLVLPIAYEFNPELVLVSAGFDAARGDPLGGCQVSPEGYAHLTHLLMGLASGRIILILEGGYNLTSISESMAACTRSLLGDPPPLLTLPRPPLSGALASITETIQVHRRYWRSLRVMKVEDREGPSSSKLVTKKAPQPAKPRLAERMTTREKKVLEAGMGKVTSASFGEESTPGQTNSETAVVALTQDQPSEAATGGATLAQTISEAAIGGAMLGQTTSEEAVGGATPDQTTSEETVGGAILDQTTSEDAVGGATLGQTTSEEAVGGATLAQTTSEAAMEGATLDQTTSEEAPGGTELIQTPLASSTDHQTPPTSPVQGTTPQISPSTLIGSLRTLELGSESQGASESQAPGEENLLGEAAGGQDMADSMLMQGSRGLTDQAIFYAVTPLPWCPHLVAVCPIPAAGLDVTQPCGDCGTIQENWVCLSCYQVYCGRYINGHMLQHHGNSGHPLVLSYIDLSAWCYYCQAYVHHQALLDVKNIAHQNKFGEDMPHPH

[6] = biological target: Histone deacetylase 9 (Homo sapiens, UniProt Q9UKV0); assay: Inhibition of C-terminal His-tagged human HDAC9 (604 to 1066 residues) expressed in baculovirus-infected Sf9 cells using Boc Lys(TFA)-AMC as substrate preincubated for 5 mins followed by substrate addition and further incubated for 30 mins by fluorogenic assay
Histone deacetylase 9, sequence (Q9UKV0 whole entry, the tested form may be a part): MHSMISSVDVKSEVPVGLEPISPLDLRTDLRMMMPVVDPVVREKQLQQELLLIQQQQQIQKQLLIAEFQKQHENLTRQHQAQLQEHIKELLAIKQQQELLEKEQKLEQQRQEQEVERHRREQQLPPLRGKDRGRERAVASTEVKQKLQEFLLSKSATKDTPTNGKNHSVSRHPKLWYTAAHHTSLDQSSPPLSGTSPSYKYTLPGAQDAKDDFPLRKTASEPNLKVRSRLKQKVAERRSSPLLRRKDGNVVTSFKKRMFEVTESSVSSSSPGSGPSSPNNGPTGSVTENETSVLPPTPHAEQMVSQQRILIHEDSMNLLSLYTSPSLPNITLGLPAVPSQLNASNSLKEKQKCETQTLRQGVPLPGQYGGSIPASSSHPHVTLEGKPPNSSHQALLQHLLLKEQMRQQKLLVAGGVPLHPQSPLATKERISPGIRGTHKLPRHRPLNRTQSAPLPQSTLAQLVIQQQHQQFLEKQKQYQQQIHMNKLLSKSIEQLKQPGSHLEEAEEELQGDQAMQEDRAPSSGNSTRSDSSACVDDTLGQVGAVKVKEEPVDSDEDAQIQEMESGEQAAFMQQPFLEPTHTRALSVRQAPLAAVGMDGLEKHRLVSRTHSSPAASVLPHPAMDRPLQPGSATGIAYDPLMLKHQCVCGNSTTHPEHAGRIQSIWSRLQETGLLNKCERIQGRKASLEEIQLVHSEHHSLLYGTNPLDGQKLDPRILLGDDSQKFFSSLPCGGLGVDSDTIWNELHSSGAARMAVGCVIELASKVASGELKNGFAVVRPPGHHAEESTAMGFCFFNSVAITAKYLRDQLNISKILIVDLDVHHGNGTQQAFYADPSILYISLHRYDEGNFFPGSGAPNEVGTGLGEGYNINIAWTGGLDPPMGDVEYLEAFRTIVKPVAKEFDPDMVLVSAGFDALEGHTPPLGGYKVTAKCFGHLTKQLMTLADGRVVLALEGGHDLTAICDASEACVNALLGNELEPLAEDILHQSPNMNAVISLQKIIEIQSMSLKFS

[7] = biological target: T3, Histone deacetylase 7 (Homo sapiens, UniProt Q8WUI4); assay: Inhibition of N-terminal GST-tagged human HDAC7 (518 to end residues) expressed in baculovirus-infected Sf9 cells using Boc Lys(TFA)-AMC as substrate preincubated for 5 mins followed by substrate addition and further incubated for 30 mins by fluorogenic assay
T3 sequence (Q8WUI4 whole entry): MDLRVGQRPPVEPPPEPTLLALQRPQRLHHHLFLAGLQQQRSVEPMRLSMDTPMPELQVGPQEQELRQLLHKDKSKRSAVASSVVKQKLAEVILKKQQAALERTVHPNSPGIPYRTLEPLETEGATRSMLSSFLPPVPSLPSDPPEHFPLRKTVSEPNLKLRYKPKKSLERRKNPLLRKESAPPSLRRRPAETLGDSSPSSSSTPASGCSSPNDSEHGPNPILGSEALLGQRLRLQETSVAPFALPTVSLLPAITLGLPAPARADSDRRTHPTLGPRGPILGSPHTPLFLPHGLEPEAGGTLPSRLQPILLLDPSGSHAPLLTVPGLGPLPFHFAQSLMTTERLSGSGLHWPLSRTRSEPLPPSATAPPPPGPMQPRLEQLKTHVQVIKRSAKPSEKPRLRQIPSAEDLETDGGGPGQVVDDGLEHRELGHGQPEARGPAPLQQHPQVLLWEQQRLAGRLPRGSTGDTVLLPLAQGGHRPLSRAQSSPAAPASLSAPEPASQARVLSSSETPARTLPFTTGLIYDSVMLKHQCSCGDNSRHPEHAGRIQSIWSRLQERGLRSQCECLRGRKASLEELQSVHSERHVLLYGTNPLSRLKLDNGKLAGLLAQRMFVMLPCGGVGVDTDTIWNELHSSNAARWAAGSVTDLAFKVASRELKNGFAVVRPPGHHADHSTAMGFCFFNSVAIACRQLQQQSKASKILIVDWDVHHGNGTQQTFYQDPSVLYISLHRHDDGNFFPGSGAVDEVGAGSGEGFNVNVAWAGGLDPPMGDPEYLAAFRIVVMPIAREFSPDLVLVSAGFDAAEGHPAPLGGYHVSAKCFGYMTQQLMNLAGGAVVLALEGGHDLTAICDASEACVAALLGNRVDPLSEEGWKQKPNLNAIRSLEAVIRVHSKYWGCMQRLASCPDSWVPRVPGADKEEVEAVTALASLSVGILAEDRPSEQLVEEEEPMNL

[8] = biological target: Class 1 histone deacetylase (Mus musculus) (UniProt Q8VH37+O09106+P70288+O88895); assay: Inhibition of class I HDAC in mouse Neuro2a cells assessed as increase in acetylated histone H3 level at 0.039 to 20 uM incubated for 24 hrs by Western blot analysis; assay type: cell-based; conditions: dose 0.039-20 µM
Class 1 histone deacetylase (Mus musculus), sequence (O09106 whole entry, looked up): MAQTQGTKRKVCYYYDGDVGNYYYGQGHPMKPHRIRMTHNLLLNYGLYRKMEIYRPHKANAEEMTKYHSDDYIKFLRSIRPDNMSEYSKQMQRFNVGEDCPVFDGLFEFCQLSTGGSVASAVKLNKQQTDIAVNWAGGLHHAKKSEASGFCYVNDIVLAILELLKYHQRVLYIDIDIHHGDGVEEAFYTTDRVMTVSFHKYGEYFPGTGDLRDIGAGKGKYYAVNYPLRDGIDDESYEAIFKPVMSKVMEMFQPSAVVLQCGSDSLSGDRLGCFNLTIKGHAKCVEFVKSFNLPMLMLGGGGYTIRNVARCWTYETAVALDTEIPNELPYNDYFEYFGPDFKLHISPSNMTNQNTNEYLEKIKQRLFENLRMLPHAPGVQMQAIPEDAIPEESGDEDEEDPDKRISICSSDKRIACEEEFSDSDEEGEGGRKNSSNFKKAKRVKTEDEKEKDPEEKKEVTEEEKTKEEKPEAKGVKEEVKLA
Class 1 histone deacetylase (Mus musculus), sequence (O88895 whole entry, looked up): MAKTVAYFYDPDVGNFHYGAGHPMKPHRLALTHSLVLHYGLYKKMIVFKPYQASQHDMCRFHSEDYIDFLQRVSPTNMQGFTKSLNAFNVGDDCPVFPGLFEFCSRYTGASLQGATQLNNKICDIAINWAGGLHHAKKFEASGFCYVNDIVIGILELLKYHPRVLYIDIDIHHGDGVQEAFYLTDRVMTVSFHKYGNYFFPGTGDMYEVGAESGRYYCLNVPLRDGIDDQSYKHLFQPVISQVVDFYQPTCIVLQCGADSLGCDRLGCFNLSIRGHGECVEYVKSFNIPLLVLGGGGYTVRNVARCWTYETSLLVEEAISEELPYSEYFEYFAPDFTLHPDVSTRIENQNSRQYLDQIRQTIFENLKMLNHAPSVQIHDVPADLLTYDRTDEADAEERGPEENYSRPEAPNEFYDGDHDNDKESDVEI
Class 1 histone deacetylase (Mus musculus), sequence (P70288 whole entry, looked up): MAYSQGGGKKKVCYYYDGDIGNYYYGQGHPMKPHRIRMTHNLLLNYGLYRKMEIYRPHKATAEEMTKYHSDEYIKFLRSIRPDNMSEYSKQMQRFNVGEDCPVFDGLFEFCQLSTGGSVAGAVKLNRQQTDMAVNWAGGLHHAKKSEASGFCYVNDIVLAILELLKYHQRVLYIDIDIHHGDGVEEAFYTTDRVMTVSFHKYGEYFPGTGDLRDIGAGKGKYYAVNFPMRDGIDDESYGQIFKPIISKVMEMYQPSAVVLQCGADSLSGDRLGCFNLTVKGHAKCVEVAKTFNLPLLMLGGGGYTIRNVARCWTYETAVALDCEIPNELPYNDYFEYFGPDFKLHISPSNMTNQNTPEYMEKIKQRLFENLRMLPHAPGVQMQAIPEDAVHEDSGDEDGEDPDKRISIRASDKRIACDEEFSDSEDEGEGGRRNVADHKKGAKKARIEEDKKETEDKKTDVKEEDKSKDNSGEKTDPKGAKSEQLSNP
Class 1 histone deacetylase (Mus musculus), sequence (Q8VH37 whole entry, looked up): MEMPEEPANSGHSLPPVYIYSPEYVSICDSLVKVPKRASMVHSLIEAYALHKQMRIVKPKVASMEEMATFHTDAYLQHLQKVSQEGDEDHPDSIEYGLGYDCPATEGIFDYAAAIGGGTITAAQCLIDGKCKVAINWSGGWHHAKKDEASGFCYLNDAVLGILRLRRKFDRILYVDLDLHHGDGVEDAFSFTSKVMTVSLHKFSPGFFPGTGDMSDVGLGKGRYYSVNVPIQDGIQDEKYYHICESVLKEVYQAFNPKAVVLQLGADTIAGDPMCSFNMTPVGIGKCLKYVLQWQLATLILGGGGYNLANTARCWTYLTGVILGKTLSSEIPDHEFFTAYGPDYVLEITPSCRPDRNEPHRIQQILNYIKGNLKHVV

[9] = test system: SH-SY5Y; assay: Induction of neurite outgrowth in human SH-SY5Y cells incubated for 5 days by immunostaining analysis; assay type: functional, cell-based; conditions: dose 1.25-5 µM, time 5.0 day
[10] = biological target: Amyloid-beta precursor protein (Homo sapiens) (UniProt P05067); assay: Inhibition of amyloid beta (1 to 42) (unknown origin) aggregation upto 10 uM by ThT fluorescence assay; conditions: dose microM <=10
[11] = test system: SH-SY5Y; assay: Induction of neurite outgrowth in human SH-SY5Y cells at 2.5 uM incubated for 5 days by immunostaining analysis; assay type: functional, cell-based; conditions: time 5.0 day
[12] = biological target: Acetylcholinesterase (Homo sapiens) (UniProt P22303); assay: Inhibition of AChE (unknown origin)
Acetylcholinesterase (Homo sapiens), sequence (P22303 whole entry): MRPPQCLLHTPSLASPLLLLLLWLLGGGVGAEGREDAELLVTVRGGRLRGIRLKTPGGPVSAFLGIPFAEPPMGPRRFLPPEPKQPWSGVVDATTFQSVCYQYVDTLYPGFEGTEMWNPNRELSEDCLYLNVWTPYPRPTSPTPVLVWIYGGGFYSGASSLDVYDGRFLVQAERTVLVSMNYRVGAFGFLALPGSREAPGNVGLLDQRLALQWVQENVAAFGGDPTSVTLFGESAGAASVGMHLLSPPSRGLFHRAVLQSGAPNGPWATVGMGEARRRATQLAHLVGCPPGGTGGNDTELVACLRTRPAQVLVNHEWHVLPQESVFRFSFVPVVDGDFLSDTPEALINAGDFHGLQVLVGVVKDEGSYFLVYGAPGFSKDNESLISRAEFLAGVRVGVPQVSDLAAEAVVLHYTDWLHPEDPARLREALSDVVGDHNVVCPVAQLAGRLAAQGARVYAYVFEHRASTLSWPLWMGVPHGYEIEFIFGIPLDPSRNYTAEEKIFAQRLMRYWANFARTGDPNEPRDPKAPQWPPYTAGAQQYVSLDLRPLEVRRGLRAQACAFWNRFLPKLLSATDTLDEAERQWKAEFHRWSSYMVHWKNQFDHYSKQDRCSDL

[13] = test system: SH-SY5Y; assay: Neuroprotective activity against H2O2-induced cell death in human SH-SY5Y cells assessed as increase in cell viability incubated for 3 hrs by MTT assay; assay type: functional, cell-based; conditions: dose 2.5-40 µM
[14] = test system: SH-SY5Y; assay: Neuroprotective activity against H2O2-induced cell death in human SH-SY5Y cells assessed as cell viability at 40 uM incubated for 3 hrs by MTT assay; assay type: functional; conditions: read-out: Activity

Structure (SMILES)	IC50 [3] [nM]	pIC50 [4]	pIC50 [5]	pIC50 [6]	pIC50 [7]	also measured
O=C(NO)c1ccc(CN2c3ccccc3Sc3ccccc32)cc1	–	–	–	–	–	inhibition [1]: Dose-Dependent Effect; Activity [2]: Non-Toxic
O=C(NO)c1ccc(CN2c3ccccc3Sc3ccc(C(F)(F)F)cc32)cc1	840	5.12	7.85	5.59	5.65	–
O=C(NO)c1ccc(CN2c3ccccc3[S+]([O-])c3ccccc32)cc1	2760	5.18	7.69	4.56	5.29	–
O=C(NO)c1ccc(Nc2c3ccccc3nc3ccc(Br)cc23)cc1	160	–	–	–	–	–
COc1ccc2c(c1)N(Cc1ccc(C(=O)NO)cc1)c1ccccc1S2	350	5.32	7.72	4.53	5.81	–
NC(=O)c1ccc2c(c1)N(Cc1ccc(C(=O)NO)cc1)c1ccccc1[S+]2[O-] (configuration not stated)	1690	4.89	7.84	5.38	5.03	–
O=C(NO)c1ccc(CN2c3ccccc3Sc3ccc(Cl)cc32)cc1	290	5.44	8.02	6.46	5.87	–
CSc1ccc2c(c1)N(Cc1ccc(C(=O)NO)cc1)c1ccccc1[S+]2[O-] (configuration not stated)	1680	< 4.40	7.44	6.14	< 4.40	–
C/C(=N\O)c1ccc2c(c1)N(Cc1ccc(C(=O)NO)cc1)c1ccccc1S2	330	5.41	7.97	5.36	5.96	–
CSc1ccc2c(c1)N(Cc1ccc(C(=O)NO)cc1)c1ccccc1S2	680	5.24	8.03	5.49	5.65	–
NC(=O)c1ccc2c(c1)N(Cc1ccc(/C=C/C(=O)NO)cc1)c1ccccc1S2	20	5.49	7.43	5.08	5.24	–
NC(=O)c1ccc2c(c1)N(Cc1ccc(C(=O)NO)cc1)c1ccccc1S2	–	–	–	–	–	inhibition [1]: Dose-Dependent Effect; inhibition [8]: Active; Activity [2]: Non-Toxic; Activity [9]: Dose-Dependent Effect; inhibition [10]: inactive; Activity [11]: Active; inhibition [12]: inactive; Activity [13]: Dose-Dependent Effect; viability at 40 µM [14]: 70.8%
